Results taken from patent publication US9102648B1, “Bioavailable diacylhydrazine ligands for modulating the expression of exogenous genes via an ecdysone receptor complex” (Intrexon Corporation, priority 2003, dated 2015).

Assays:
[1] = molecular target: GAL4 DBD (1-147)-CfEcR(DEF)/VP16AD-βRXREF-LmUSPEF (Choristoneura fumiferana, UniProt O77240); experiment: cell-based; settings: for 27-63 assay Rel Max FI: maximum fold induction at any concentration relative to that of GS-E ligand, CHO 27-63 cells; for fold induction at 33 µM: read-out: Fold Induction, 27-63 Assay, 33 uM
[2] = tested on: mutated ecdysone receptor-based gene switch; experiment: In vivo SEAP induction, ligand by IP injection; parameters: species or system C57BL/6 mouse; settings: IP 26 nmol ligand
Method: Applicants' ligands are useful in various applications including gene therapy, expression of proteins of interest in host cells, production of transgenic organisms, and cell-based assays. In vivo induction of a reporter enzyme with various ligands of the present invention was evaluated in a C57BL/6 mouse model system containing a gene switch.
Each element of the gene switch was on a separate plasmid. Receptor expression was under the control of a CMV promoter (SEQ ID NO: 15). Induction was evaluated by the amount of reporter protein expressed in the presence of ligand.
SEAP expression in serum of mice was evaluated after electroporation of the gene switch into mouse quadriceps. Mice were anesthetized with 2 μL/g of a mixture of ketamine (100 mg/mL) and xylazine (20 mg/mL). Animals were then shaved, DNA vectors injected into the muscle in a volume of 2×50 μL polyglutamic acid (12 mg/mL water), electrode conductivity gel applied, and an electrode caliber (1 cm×1 cm; model 384) was placed on hind leg. The muscle was electroporated with 200 V/cm, 8 times, for 20 msec/pulse, at 1 sec time intervals. The transverse electrical field direction was reversed after the animals received half of the pulses. Electroporation was performed with an ECM 830 electroporator from BTX Molecular Delivery Systems.
In some experiments mice received an intraperitoneal injection (IP) of 2.6 μmol of ligand in 50 μL of DMSO 3 days after electroporation of the gene switch. In other experiments the concentration of ligand was decrease to 26 nmol/50 μL of DMSO/mouse. SEAP expression was evaluated 2-11 days after ligand administration. In other experiments ligand was administered in rodent chow. The chow was prepared by dissolving 2 g of ligand in 20 mL of acetone and adding it to 1 kg of LabDiet 5010 autoclavable chow from Purina Mills. This was thoroughly mixed in a Hobart mixer and then mixed for an additional 15 min in a Cross Blend mixer. Animals received chow ad libitum for 1, 2, or 3 days. All values are the average from four animals. Background SEAP in sera from animals treated with vector alone without ligand addition was 0-11 ng/mL serum.
Mouse serum was obtained by centrifugation of blood acquired by retroorbital bleeding with a small glass capillary tube. SEAP quantification was determined using a Clontech Great Escape chemiluminescence kit and by comparison with the Clontech SEAP standard.
Table 9: In vivo evaluation of ligand-mediated induction of a mutated ecdysone receptor-based gene switch. SEAP expression in serum of mice was evaluated after electroporation of the gene expression cassettes into mouse quadriceps. Mice received an IP injection of 2.6 μmol of ligand 3 days after electroporation. SEAP expression was evaluated 2-11 days after ligand administration. Each dose group was composed of four animals. Percentage of GS™-E ligand induction was determined by averaging SEAP expression from four animals divided by the average SEAP expression induced with GS™-E ligand and then multiplying by 100.
Table 10: Induction of gene switch expression with low concentrations of ligand. SEAP expression in serum of mice was evaluated after electroporation of the gene expression cassettes into mouse quadriceps. Mice received an IP injection of 26 nmol of ligand or 130 nmol GS™-E ligand 3 days after electroporation. SEAP expression was evaluated 2-7 days after ligand administration. Values are the average from 4 animals.

[3] = molecular target: T1, Bombyx mori EcR (VP16 fusion, CVBE switch construct) (Bombyx mori, UniProt P49881); experiment: Z3 Assay (HEK-293 cells with CVBE and 6XEcRE LacZ, β-galactosidase reporter); settings: for Fold Induction, Z3 Assay, 3.3 uM: 3.3 uM ligand; for Fold Induction, Z3 Assay, 3.3 uM / Fold Induction, Z3 Assay, 33 uM: ligand treated / DMSO treated cells; for Fold Induction, Z3 Assay, 3.3 uM / Fold Induction, Z3 Assay, 33 uM / EC50: average of two wells; for Fold Induction, Z3 Assay, 33 uM: 33 uM ligand; for Z3 assay Rel Max FI: maximum fold induction at any concentration relative to that of GS-E ligand; for Z3 assay Rel Max FI / EC50: HEK-293 Z3 cells; for EC50: read-out: Z3 assay EC50, β-galactosidase reporter
T1 sequence (P49881 86-606): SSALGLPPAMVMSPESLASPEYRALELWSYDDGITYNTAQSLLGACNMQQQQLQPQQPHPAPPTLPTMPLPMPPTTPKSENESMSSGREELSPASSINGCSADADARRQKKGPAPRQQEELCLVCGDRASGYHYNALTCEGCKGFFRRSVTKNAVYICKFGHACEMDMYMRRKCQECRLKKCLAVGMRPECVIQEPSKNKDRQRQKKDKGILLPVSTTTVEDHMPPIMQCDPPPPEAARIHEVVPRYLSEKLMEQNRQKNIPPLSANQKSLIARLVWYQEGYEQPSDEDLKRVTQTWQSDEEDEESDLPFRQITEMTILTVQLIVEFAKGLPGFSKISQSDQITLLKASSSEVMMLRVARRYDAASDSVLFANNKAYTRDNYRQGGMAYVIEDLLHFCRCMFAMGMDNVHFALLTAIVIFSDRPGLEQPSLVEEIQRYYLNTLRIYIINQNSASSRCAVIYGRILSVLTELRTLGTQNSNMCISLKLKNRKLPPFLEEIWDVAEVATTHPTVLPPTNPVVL
T1 sequence (P19793 1-462 partner): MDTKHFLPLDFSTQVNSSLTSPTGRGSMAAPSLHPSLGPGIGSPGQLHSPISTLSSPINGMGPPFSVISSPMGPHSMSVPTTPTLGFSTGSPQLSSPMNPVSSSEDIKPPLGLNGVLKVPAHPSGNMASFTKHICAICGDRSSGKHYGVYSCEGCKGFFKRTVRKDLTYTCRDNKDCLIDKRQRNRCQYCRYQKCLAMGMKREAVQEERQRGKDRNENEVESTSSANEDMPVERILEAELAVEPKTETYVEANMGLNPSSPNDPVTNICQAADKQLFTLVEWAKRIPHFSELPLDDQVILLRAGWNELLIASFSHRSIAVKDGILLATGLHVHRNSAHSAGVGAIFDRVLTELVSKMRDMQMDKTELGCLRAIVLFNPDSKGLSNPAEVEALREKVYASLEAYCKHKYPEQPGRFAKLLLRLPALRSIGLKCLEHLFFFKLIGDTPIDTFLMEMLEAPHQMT

[4] = molecular target: GAL4 DBD-CfEcR(DEF)/VP16AD-MmRXRE (Choristoneura fumiferana, UniProt O77240); experiment: 13B3 Assay (CHO stable cell line, luciferase reporter); settings: for Fold Induction, 13B3 Assay, 3.3 uM: 3.3 uM ligand; for Fold Induction, 13B3 Assay, 3.3 uM / Fold Induction, 13B3 Assay, 33 uM: RLU ligand treated / RLU DMSO treated cells; for Fold Induction, 13B3 Assay, 3.3 uM / Fold Induction, 13B3 Assay, 33 uM / EC50: average of two wells; for Fold Induction, 13B3 Assay, 33 uM: 33 uM ligand; for 13B3 assay Rel Max FI: maximum fold induction at any concentration relative to that of GS-E ligand, CHO 13B3 cells; for EC50: read-out: 13B3 EC50, CHO 13B3 stable cell line, luciferase reporter, 48 h
In short: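 CHO 13B3 clone stably expressing GAL4 DBD–CfEcR(DEF) and VP16AD–MmRXR(DE) with GAL4 RE–luciferase reporter; cells plated 24 h at 37 °C, then treated with ligands (DMSO stocks diluted 300-fold), 8 concentrations 33–0.01 μM.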

SMILES	EC50 [1] [nM]	27-63 assay Rel Max FI [1]	fold induction at 33 µM [1]	Secreted Alkaline Phosphatase Day 2 [2]	Secreted Alkaline Phosphatase Day 3 [2]	Fold Induction, Z3 Assay, 3.3 uM [3]	Fold Induction, Z3 Assay, 33 uM [3]	Z3 assay Rel Max FI [3]	EC50 [3] [nM]	Fold Induction, 13B3 Assay, 3.3 uM [4]	Fold Induction, 13B3 Assay, 33 uM [4]	13B3 assay Rel Max FI [4]	EC50 [4] [nM]
CCc1c(C(=O)NN(C(=O)c2cc(C)cc(C)c2)C(CC)C(C)(C)C)ccc2c1OCCO2 (stereo not drawn) [RG-115858, 3,5-dimethyl-benzoic acid N′-(5-ethyl-2,3-dihydro-benzo[1,4]dioxine-6-carbonyl)-N-(1-ethyl-2,2-dimethyl-propyl)-hydrazide]	5	0.915	182	13,661 ng/ml mouse sera	11,820 ng/ml mouse sera	–	–	–	–	–	–	–	–
CCC(N(NC(=O)c1ccc2c(c1C)OCCO2)C(=O)c1cc(C)cc(C)c1)C(C)(C)C (stereo not drawn) [RG-115856, 3,5-Dimethyl-benzoic acid N-(1-ethyl-2,2-dimethyl-propyl)-N′-(5-methyl-2,3-dihydro-benzo[1,4]dioxine-6-carbonyl)-hydrazide]	3	0.879	1760	2,292 ng/ml mouse sera	2,350 ng/ml mouse sera	–	–	–	–	–	–	–	–
CCCC(N(NC(=O)c1ccc2c(c1C)OCCO2)C(=O)c1cc(C)cc(C)c1)C(C)(C)C (stereo not drawn) [RG-115864, 3,5-Dimethyl-benzoic acid N-(1-tert-butyl-butyl)-N′-(5-methyl-2,3-dihydro-benzo[1,4]dioxine-6-carbonyl)-hydrazide]	4	0.979	1260	6,722 ng/ml mouse sera	5,652 ng/ml mouse sera	–	–	–	–	–	–	–	–
Cc1cc(C)cc(C(=O)N(NC(=O)c2cccc(I)c2C)C(C)(C)C)c1 [RG-101734]	–	–	–	–	–	987	951	0.988	145	918	442	–	–
Cc1c(C(=O)NN(C(=O)c2ccccc2[S+](C)[O-])C(C)(C)C)ccc2c1OCCO2 (stereo not drawn) [RG-115064]	–	–	–	–	–	1	3	0.031	> 50000	2	415	0.000	> 50000
CCc1c(OC)cccc1C(=O)NN(C(=O)c1ccccc1[N+](=O)[O-])C(C)(C)C [RG-115330]	–	–	–	–	–	633	432	0.860	186	1995	3577	0.711	5690
COc1cc(C(=O)N(NC(=O)c2ccc3c(c2C)OCCO3)C(C)(C)C)c([N+](=O)[O-])c(OC)c1C [RG-115609, 3,5-dimethoxy-4-methyl-2-nitrobenzoic acid N-t-butyl-N′-(5-methy-1benzo-1,4-dioxan-6-carbonyl)-hydrazide]	–	–	–	–	–	90	383	0.625	1390	558	4217	0.883	13800
CCc1c(OC)cccc1C(=O)NN(C(=O)c1cccc(F)c1)C(C)(C)C [RG-115515]	–	–	–	–	–	1306	420	0.975	617	–	1996	–	–
COc1cc(F)ccc1C(=O)N(NC(=O)c1cccc(OC)c1C)C(C)(C)C [RG-100524]	–	–	–	–	–	991	146	1.002	263	–	1211	–	–
CC(C)(C)N(NC(=O)c1c(F)ccc(F)c1F)C(=O)c1ccc(F)cc1Cl [RG-100620]	–	–	–	–	–	710	428	0.869	2400	–	13982	–	–
CCc1c(OC)cccc1C(=O)NN(C(=O)c1cc(C)cc(C)c1)C(C)(C)C#N [RG-115043]	–	–	–	–	–	466	1588	0.943	178	835	547	0.852	2670
COc1cccc(C(=O)NN(C(=O)c2cc(C)cc(C)c2)C(C)(C)C)c1C[S+](C)[O-] (stereo not drawn) [RG-115172]	–	–	–	–	–	1	216	0.32	> 50000	1	–	0	> 50000
COc1cccc(C(=O)NN(C(=O)c2cc(F)ccc2F)C(C)(C)C)c1C [RG-100603]	–	–	–	–	–	–	453	–	–	–	570	–	–
CCC(N(NC(=O)c1ccc2c(c1C)OCCO2)C(=O)c1cc(OC)c(C)c(OC)c1)C(C)(C)C (stereo not drawn) [RG-115857, 3,5-Dimethoxy-4-methyl-benzoic acid N-(1-ethyl-2,2-dimethyl-propyl)-N′-(5-methyl-2,3-dihydro-benzo[1,4]dioxine-6-carbonyl)-hydrazide]	13	1.140	328	574 ng/ml mouse sera	401 ng/ml mouse sera	–	–	–	–	–	–	–	–
CCc1c(C(=O)NN(C(=O)c2cc(F)c(Cl)cc2Cl)C(C)(C)C)ccc2c1OCCO2 [RG-115684]	–	–	–	–	–	–	498	–	–	–	151	–	–
